Values of other authors in patent US20120164100A1, “TEMPERATURE SENSITIVE HYDROGEL AND BLOCK COPOLYMERS” (priority 2010, published 2012).

**Q.** Which results are given for `CCCCC[C@H](O)/C=C/[C@H]1[C@H](O)CC(=O)[C@@H]1C/C=C\CCCC(=O)O` [PGE2, Prostaglandin E2]?
**A.** solubility (pH above 6, Critical Micelle Concentration): about 5 mg/mL; half life (physiological condition): very short
